The text below walks through data of patent publication US7846935B2, “Furo[3,2-B]pyrrol-3-one derivatives and their use as cysteinyl proteinase inhibitors” (Amura Therapeutics Limited, priority 2006, dated 2010).

Read-outs that look alike come from different tables or passages of the source.

One series is described as follows: Plasma incubations. The format is in vitro ADME. Conditions: 37° C., 25 μM.
Series [1] is described as follows: Liver microsomal incubations. Type of series: in vitro ADME. Conditions: human liver microsomes, 25 μM, NADPH. In general terms: Liver microsomes are vesicles of endoplasmic reticulum, rich in cytochrome P450 enzymes.
Method: All liver microsome incubations were carried out in 50 mM potassium phosphate buffer at pH 7.4, with a final microsomal protein concentration of 0.5 mg/mL. […] In brief, compounds were added to the incubation buffer along with the liver microsomes and incubated at 37° C. for 10 minutes. The reaction was then initiated by the addition of NADPH, previously dissolved in incubation buffer, to give a final concentration of 1 mM and re-incubated at 37° C. Aliquots were removed at 2 and 60 minutes and quenched with an equal volume of cold acetonitrile. After mixing vigorously, the precipitated protein matter was removed by filtration (Multiscreen Solvinert filter plates, Millipore, Bedford, Mass., USA) and the filtrate analysed by reverse phase HPLC with mass spectrometric detection, using single ion monitoring of the [M+H]^+ species. Metabolic turnover was determined by comparison of peak areas from the ion chromatograms of the parent compound at 2 and 60 minutes and expressed as percent remaining at 1 hour.
In another series the test system is human osteoclasts. The series can be described thus: Human osteoclast resorption assay. The format is cell-based. The protocol: Bone resorption was studied using a model where human osteoclast precursor cells were cultured on bovine bone slices for 9 days and allowed to differentiate into bone-resorbing osteoclasts. The formed mature osteoclasts were then allowed to resorb bone. The assay was performed by Pharmatest Services Ltd, Itainen Pitkakatu 4C, Turku, Finland. After the culture period, bone collagen degradation products were quantified from the culture medium as an index of bone resorption. Inhibitor compounds were added into the cell cultures after the differentiation period and their effects on the resorbing activity of mature osteoclasts were determined. The studies included a baseline group without added compounds and a positive control group where a potent cathepsin K inhibitor E-64 was added.
Human peripheral blood monocytes were suspended to culture medium and allowed to attach to bovine bone slices. The bone slices were transferred into 96-well tissue culture plates containing culture medium with appropriate amounts of important growth factors favouring osteoclast differentiation, including M-CSF, RANK-ligand and TGF-β. The cells were incubated in a CO2 incubator in humidified atmosphere of 95% air and 5% carbon dioxide at 37° C. At day 7 when osteoclast differentiation was complete, the culture medium was replaced with culture medium containing conditions favouring osteoclast activity. The cell culture was continued for an additional 2 days, during which the formed mature osteoclasts were allowed to resorb bone in the presence of vehicle, control inhibitor (E64) or test compounds. At the end of the culture, bone collagen degradation products released into the culture medium were determined using a commercially available ELISA method (CrossLaps® for culture, Nordic Bioscience, Herlev, Denmark) as an index of bone resorption (see Bagger, Y. Z. et al, J. Bone. Miner. Res. 14 (suppl. 1), S370).

A short description of another series: LogD determinations. The format is physicochemical. Conditions: 1-octanol/PBS; PBS pH 7.4/1-octanol, ion-count method.
The next series deals with rat osteoclasts. The series can be described thus: Rat osteoclast resorption assay. Type of series: cell-based. On the procedure: Bone resorption was studied using a model where mature osteoclasts derived from rat bone were cultured on bovine bone slices for 3 days and allowed to resorb bone in the presence of inhibitor, positive control (E-64) or vehicle. More specifically, tibia, femori and humeri were removed from 1 day old rat pups. The endosteal surfaces of the bones were scraped with a scapelto release osteoclasts into the culture medium and the osteoclasts were allowed to attach to bovine bone slices. After the culture period, bone collagen degradation products were quantified from the culture medium as an index of bone resorption. The assay was performed by Pharmatest Services Ltd, Itäinen Pitkakatu 4C, Turku, Finland.

Series [2] addresses T1, Human recombinant cathepsin K (Homo sapiens, UniProt P43235).
T1 construct: B. Turk, Josef, Stefan Institute, Ljubljana, Slovenia
T1 sequence (P43235 115-329): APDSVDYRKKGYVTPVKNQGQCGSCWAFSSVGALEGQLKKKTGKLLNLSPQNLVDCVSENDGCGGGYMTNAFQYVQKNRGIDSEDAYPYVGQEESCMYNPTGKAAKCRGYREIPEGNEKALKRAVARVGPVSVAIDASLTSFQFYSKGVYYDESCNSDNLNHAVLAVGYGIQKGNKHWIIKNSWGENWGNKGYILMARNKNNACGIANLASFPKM
The series can be described thus: In vitro cathepsin Ki inhibition measurements. Conditions: Table 1, read-out: In vitro Ki (nM) vs Cath K. Type of series: biochemical. On the procedure:
Stock solutions of substrate or inhibitor were made up to 10 mM in 100% dimethylsulfoxide (DMSO) (Rathburns, Glasgow, U.K.) and diluted as appropriately required. In all cases the DMSO concentration in the assays was maintained at less than 1% (vol./vol.). The equilibrium inhibition constants (Ki^ss) for each compound were measured under steady-state conditions monitoring enzyme activity as a function of inhibitor concentration. The values were calculated on the assumption of pure competitive behaviour (Cornish-Bowden, A. Fundamentals of enzyme kinetics Portland Press; 1995, 93-128). Human recombinant cathepsin K (0.25 nM final; B. Turk, Josef, Stefan Institute, Ljubljana, Slovenia), was routinely assayed in 100 mM sodium acetate; pH 5.5 containing 1 mM EDTA, 10 mM L-cysteine and 1.8 μM Z-Leu-Arg-AMC ([S]=KM).
The apparent inhibition constant (Ki) for each compound was determined on the basis that inhibition was reversible and occurred by a pure-competitive mechanism. The Ki values were calculated, from the dependence of enzyme activity as a function of inhibitor concentration, by direct regression analysis (Prism v 3.02) using Equation 2 (Cornish-Bowden, A., 1995).
In situations where the apparent dissociation constant (Ki^app) approached the enzyme concentrations, the Ki^app values were calculated using a quadratic solution in the form described by Equation 3 (Morrison, J. F. Trends Biochem. Sci., 7, 102-105, 1982; Morrison, J. F. Biochim. Biophys. Acta, 185, 269-286, 1969; Stone, S. R. and Hofsteenge, J. Biochemistry, 25, 4622-4628, 1986).
Curves were fitted by non-linear regression analysis (Prism) using a fixed value for the enzyme concentration. Equation 4 was used to account for the substrate kinetics, where ‘Ki’ is the inhibition constant, ‘[So]’ is the initial substrate concentration and ‘KM^app’ is the apparent macroscopic binding (Michaelis) constant for the substrate (Morrison, 1982).

Where [3] appears, read: human osteoclast bone resorption, read-out: Cell-based % Inh. @ 1 μM Human.
The mark [4] stands for this setting: 1 μM, rat osteoclast bone resorption, read-out: Cell-based % Inh. @ 1 μM Rat.
The mark [5] stands for this setting: human osteoclast, read-out: inhibition of human osteoclast activity.
Where [6] appears, read: rat osteoclast, 1 μM per table 1, read-out: rat osteoclast data (inhibition).

Method for LogD determinations: LogD(PBS) determinations were performed in 96 well microtitre plates using a miniaturised “shake-flask” method. […] The plates were then capped and mixed vigorously for 1 hour on a microtitre plate shaker, after which they were left to stand, allowing the PBS and octanol phases to separate. The PBS layer was analysed by reverse phase HPLC with mass spectrometric detection, using single ion monitoring of the [M+H]^+ species.
Where AUCstd and AUCpbs are the peak areas from the standard and test ion chromatograms respectively.
Method for Plasma incubations: Aliquots were removed at 2 and 60 minutes and quenched with an equal volume of cold acetonitrile. After mixing vigorously, the precipitated protein matter was removed by filtration (Multiscreen Solvinert filter plates, Millipore, Bedford, Mass., USA) and the filtrate analysed by reverse phase HPLC with mass spectrometric detection, using single ion monitoring of the [M+H]^+ species. Metabolic turnover was determined by comparison of peak areas from the ion chromatograms of the parent compound at 2 and 60 minutes and expressed as percent remaining at 1 hour.

`CC(C)C[C@H](NC(=O)c1ccc(N2CCN(C)CC2)cc1)C(=O)N1CC[C@H]2OCC(=O)[C@H]21` [EXAMPLE 1, 4-(4-methylpiperazin-1-yl)-N—((S)-4-methyl-1-oxo-1-((3aS,6aR)-3-oxodihydro-2H-furo[3,2-b]pyrrol-4(5H,6H,6aH)-yl)pentan-2-yl)benzamide, reference compound]: in the series “Plasma incubations”, the “Human Plasma Stability % rem. @ 1 h” value came to 95%. Further, in series [1], the “HLM % rem. @ 1 h” value is recorded as 95%. In the series on human osteoclasts (setting [3]), the inhibition at 1 µM is 55%.
For the molecule `CCN1CCN(c2ccc(C(=O)N[C@@H](CC(C)C)C(=O)N3CC[C@H]4OCC(=O)[C@H]43)cc2)CC1` [EXAMPLE 2, 4-(4-ethylpiperazin-1-yl)-N—((S)-4-methyl-1-oxo-1-((3aS,6aR)-3-oxodihydro-2H-furo[3,2-b]pyrrol-4(5H,6H,6aH)-yl)pentan-2-yl)benzamide], the logD in the series “LogD determinations” was determined as 0.74. In addition, the “Human Plasma Stability % rem. @ 1 h” value in the series “Plasma incubations” was determined as 93%. Also, the “HLM % rem. @ 1 h” value in series [1] was determined as 88%. The inhibition at 1 µM was found to be 40% with rat osteoclasts (setting [4]), 58% in the series on human osteoclasts (setting [3]) and 58% in the series with human osteoclasts (setting [5]). Also, the inhibitory constant (Ki) in series [2] was 15 nM.
For `CCCN1CCN(c2ccc(C(=O)N[C@@H](CC(C)C)C(=O)N3CC[C@H]4OCC(=O)[C@H]43)cc2)CC1` [EXAMPLE 3, N—((S)-4-methyl-1-oxo-1-((3aS,6aR)-3-oxo-dihydro-2H-furo[3,2-b]pyrrol-4(5H,6H,6aH)-yl)pentan-2-yl)-4-(4-propylpiperazin-1-yl)benzamide], in “LogD determinations”, the logD was found to be 1.66. Further, the “Human Plasma Stability % rem. @ 1 h” value in the series “Plasma incubations” was 89%. Besides, the “HLM % rem. @ 1 h” value in series [1] came out at 83%. Further, the inhibition at 1 µM was 65% with rat osteoclasts (setting [4]), 65% in the series with rat osteoclasts (setting [6]), 73% with human osteoclasts (setting [3]) and 73 to 82% in the series on human osteoclasts (setting [5]). In addition, the Ki in series [2] turned out to be 18 nM.
`CC(C)C[C@H](NC(=O)c1ccc(N2CCN(C(C)C)CC2)cc1)C(=O)N1CC[C@H]2OCC(=O)[C@H]21` [EXAMPLE 4, 4-(4-isopropylpiperazin-1-yl)-N—((S)-4-methyl-1-oxo-1-((3aS,6aR)-3-oxodihydro-2H-furo[3,2-b]pyrrol-4(5H,6H,6aH)-yl)pentan-2-yl)benzamide] displayed a logD in “LogD determinations” of 1.21. The “Human Plasma Stability % rem. @ 1 h” value in the series “Plasma incubations” was 91%. Moreover, in series [1], the “HLM % rem. @ 1 h” value was 88%. The inhibition at 1 µM in the series on rat osteoclasts (setting [4]) was 25%; in the series with rat osteoclasts (setting [6]), 25%; with human osteoclasts (setting [3]) it was 74%; in the series on human osteoclasts (setting [5]) it was 73 to 82%. In addition, in series [2], the Ki was 19 nM.
In turn, `COCCN1CCN(c2ccc(C(=O)N[C@@H](CC(C)C)C(=O)N3CC[C@H]4OCC(=O)[C@H]43)cc2)CC1` [EXAMPLE 5, 4-(4-(2-methoxyethyl)piperazin-1-yl)-N—((S)-4-methyl-1-oxo-1-((3aS,6aR)-3-oxodihydro-2H-furo[3,2-b]pyrrol-4(5H,6H,6aH)-yl)pentan-2-yl)benzamide] had a logD in the series “LogD determinations” of 0.9. The “Human Plasma Stability % rem. @ 1 h” value in the series “Plasma incubations” stood at 98%. Moreover, the “HLM % rem. @ 1 h” value in series [1] stood at 90%. Besides, the inhibition at 1 µM stood at 65% in the series on rat osteoclasts (setting [4]), 65% in the series on rat osteoclasts (setting [6]), 57% in the series on human osteoclasts (setting [3]) and 57% in the series on human osteoclasts (setting [5]). Moreover, the Ki in series [2] was 29 nM.
In the series “LogD determinations”, `CC(C)C[C@H](NC(=O)c1ccc(N2CCN(C3CC3)CC2)cc1)C(=O)N1CC[C@H]2OCC(=O)[C@H]21` [EXAMPLE 6, 4-(4-cyclopropylpiperazin-1-yl)-N—((S)-4-methyl-1-oxo-1-((3aS,6aR)-3-oxodihydro-2H-furo[3,2-b]pyrrol-4(5H,6H,6aH)-yl)pentan-2-yl)benzamide] came in with a logD of 1.88. Further, the “Human Plasma Stability % rem. @ 1 h” value in the series “Plasma incubations” is listed as 93%. In addition, the “HLM % rem. @ 1 h” value in series [1] was 83%. Also, the inhibition at 1 µM is 22% in the series with rat osteoclasts (setting [4]), 22% in the series with rat osteoclasts (setting [6]), 74% in the series with human osteoclasts (setting [3]) and 73 to 82% in the series with human osteoclasts (setting [5]). Further, the Ki in series [2] is 4 nM.
For `CC(C)C[C@H](NC(=O)c1ccc(N2CCN(C3CCC3)CC2)cc1)C(=O)N1CC[C@H]2OCC(=O)[C@H]21` [EXAMPLE 7, 4-(1-cyclobutylpiperazin-4-yl)-N—((S)-4-methyl-1-oxo-1-((3aS,6aR)-3-oxodihydro-2H-furo[3,2-b]pyrrol-4(5H,6H,6aH)-yl)pentan-2-yl)benzamide], the logD in “LogD determinations” turned out to be 1.88. Moreover, the “Human Plasma Stability % rem. @ 1 h” value in “Plasma incubations” came out at 92%. Also, the “HLM % rem. @ 1 h” value in series [1] is recorded as 81%. Besides, the inhibition at 1 µM with rat osteoclasts (setting [4]) is 40%; in the series with rat osteoclasts (setting [6]), 40%; in the series with human osteoclasts (setting [3]), 82%; in the series with human osteoclasts (setting [5]), 73 to 82%. In addition, in series [2], the Ki was determined as 3 nM.
As for `COCCN1CCC(c2ccc(C(=O)N[C@@H](CC(C)C)C(=O)N3CC[C@H]4OCC(=O)[C@H]43)cc2)CC1` [EXAMPLE 8, 4-(1-(2-methoxyethyl)piperidin-4-yl)-N—((S)-4-methyl-1-oxo-1-((3aS,6aR)-3-oxodihydro-2H-furo[3,2-b]pyrrol-4(5H,6H,6aH)-yl)pentan-2-yl)benzamide], the logD in the series “LogD determinations” was determined as 0.61. Further, the “Human Plasma Stability % rem. @ 1 h” value in “Plasma incubations” came out at 98%. Further, the “HLM % rem. @ 1 h” value in series [1] is 88%. Besides, the inhibition at 1 µM in the series with rat osteoclasts (setting [4]) was 52%; with rat osteoclasts (setting [6]), 52%; in the series on human osteoclasts (setting [3]) it was 23%; in the series on human osteoclasts (setting [5]), 23%. Moreover, in series [2], the Ki came out at 36 nM.
In “LogD determinations”, `CC(C)C[C@H](NC(=O)c1ccc(C2CCN(C3CC3)CC2)cc1)C(=O)N1CC[C@H]2OCC(=O)[C@H]21` [compound 9, 4-(1-cyclopropylpiperidin-4-yl)-N—((S)-4-methyl-1-oxo-1-((3aS,6aR)-3-oxodihydro-2H-furo[3,2-b]pyrrol-4(5H,6H,6aH)-yl)pentan-2-yl)benzamide] came in with a pH-dependent lipophilicity (logD) of 1.99. In “Plasma incubations”, the “Human Plasma Stability % rem. @ 1 h” value is on record as 93%. Further, in series [1], the “HLM % rem. @ 1 h” value was determined as 82%. For the same molecule, the Ki in series [2] came out at 8 nM.
As to `CC(C)C[C@H](NC(=O)c1ccc(C2CCN(C3CCC3)CC2)cc1)C(=O)N1CC[C@H]2OCC(=O)[C@H]21` [compound 10, 4-(1-cyclobutylpiperidin-4-yl)-N—((S)-4-methyl-1-oxo-1-((3aS,6aR)-3-oxodihydro-2H-furo[3,2-b]pyrrol-4(5H,6H,6aH)-yl)pentan-2-yl)benzamide], in the series “LogD determinations”, the pH-dependent lipophilicity (logD) was determined as 0.95. In “Plasma incubations”, the “Human Plasma Stability % rem. @ 1 h” value stood at 90%. Further, the “HLM % rem. @ 1 h” value in series [1] was 83%. In series [2], the Ki turned out to be 5 nM.

Usually logD stands for the decadic logarithm of the distribution of all forms, ionised or not, between an organic phase and buffer at a given pH. Read a low logD as lower lipophilicity. What is called Ki is a dissociation constant, usually derived from enzyme kinetics or from competition with a known ligand.
